≈ marks a conversion by molar mass, not a printed value. Like-named read-outs stand apart in the source and are kept apart here. Positions of bridges follow the written chain, without caps; N, C: chain ends. Non-standard residues stand in square brackets, D forms with d. Residues, ends and D or L forms follow the SMILES beside them. R8 = C=CCCCCCC[C@@](C)(N)C(=O)O; S5 = C=CCCC[C@](C)(N)C(=O)O; Aib = CC(C)(N)C(=O)O
Legend:
[1] = test system: p53 responsive β-lactamase reporter in HCT116 cells; assay: cells; type: cell-based
In short: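 HCT116 cells stably carrying a p53-responsive β-lactamase reporter, seeded at 8000 cells/well, with 0.5% DMSO final. Reporter activity read by ToxBLAzer Dual Screen. Values are geometric means of at least three biological replicates.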

[2] = Lactate dehydrogenase (LDH) release assay; type: cell-based
In short: (§1)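 A p53 β-lactamase reporter HCT116 line, 8000 cells per well, is exposed to test compounds at 0.5% final DMSO and scored for LDH leakage.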

[3] = test system: HCT116 cells; assay: Lactate dehydrogenase (LDH) release assay; type: cell-based
In short: as §1

[4] = test system: Jump-In T-REx CHO-K1 BLA cells; assay: cells; type: cell-based
[5] = Circular dichroism (CD) helicity; type: physicochemical
Method: A total of 5 µL of the 10 mM stock peptide was mixed with 45 µL of 100% methanol, and dried for 2 h in the SpeedVac concentrator (Thermo Scientific). The dried peptide was reconstituted in a buffer (1 mM Hepes pH 7.4 and 5% methanol) to a concentration of 1 mM. The peptide sample was placed in a quartz cuvette with a path length of 0.2 cm. The peptide concentration was determined by the absorbance of the peptide at […]. The CD spectrum was recorded from 300 to 190 nm using the Chirascan-plus qCD machine (Applied Photophysics, Surrey, UK), at 25 °C. All experiments were done in duplicates. The CD spectrum was converted to mean residue ellipticity before deconvolution and estimation of the secondary structure components of the peptide using the CDNN software (distributed by Applied Photophysics). Measurements were taken at least twice and were reported as arithmetic means.

[6] = Solubility assay (kinetic solubility, PBS pH 7); type: physicochemical; details: for solubility kinetic: pH 7, aqueous buffer, kinetic from dmso stock, read-out: Solubility
In short: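 Reference standards were made by diluting the 10 mM stock to 100 µM in acetonitrile:methanol:DMSO 10:80:10. Solubility in µM was calculated as the sample peak area divided by the standard peak area, multiplied by the standard concentration.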

[7] = Nanoclick permeability assay
In short: (§2)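 Azido-peptide permeability was read as loss of NanoBRET signal (donor 450 nm, acceptor 610 nm) after adding NanoBret618-azide at 10 μM final.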

[8] = test system: cells transiently transfected with the NanoLuc-HaloTag vector; assay: Nanoclick permeability assay; details: 4Hr
In short: as §2

[9] = Experimental LogD (partition coefficient); details: for logD: not stated, Partition Coeff LogD
[10] = test system: Ca Ski cell line; details: read-out: Cell Proliferation assay EC50; p53 Mut, Ca-Ski
In short: (§3)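 Compound dilution series (10 points, 3-fold, 10 mM top stock in DMSO) tested on overnight-plated Ca Ski cells in RPMI1640/10% FBS and on blasticidin-selected p53RE-bla HCT-116 cells in McCoy's 5A; read-out was CellTiter-Glo 2.0 luminescence after room-temperature equilibration.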

[11] = test system: CellSensor p53RE-bla HCT-116 Cell Line; details: read-out: Cell Proliferation assay EC50; p53 WT, HCT116
In short: as §3

[12] = physchem
[13] = target: T1, human Mdm2 1–125 (Homo sapiens, UniProt Q00987); assay: Mdm2 binding by competitive fluorescence anisotropy assay (FP binding); details: read-out: FP binding assay KD
T1 construct: GST (N); His6 (internal); TEV cleavage site (ENLYFQG) (internal); made in house; host or cells: BL21 (DE3) Rosetta T1R Escherichia coli
T1 sequence (Q00987 with tags, fused parts or gaps): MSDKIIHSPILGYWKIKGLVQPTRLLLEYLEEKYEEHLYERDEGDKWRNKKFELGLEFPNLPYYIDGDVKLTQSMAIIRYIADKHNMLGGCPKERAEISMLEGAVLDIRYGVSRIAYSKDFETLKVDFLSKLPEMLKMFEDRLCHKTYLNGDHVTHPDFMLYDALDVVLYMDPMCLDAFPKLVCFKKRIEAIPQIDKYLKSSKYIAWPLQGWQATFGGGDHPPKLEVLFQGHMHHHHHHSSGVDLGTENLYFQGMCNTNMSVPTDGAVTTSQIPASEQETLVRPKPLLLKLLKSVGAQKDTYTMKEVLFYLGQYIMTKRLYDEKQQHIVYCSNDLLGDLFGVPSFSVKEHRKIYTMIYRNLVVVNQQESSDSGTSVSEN

[14] = physchem; remark: listed apart in the source
[15] = 0% FBS 4Hr, read-out: p53 reporter assay: EC50
[16] = read-out: Cell EC50 (4 hr, 0% FBS), p53 reporter assay, 4 hr, 0% FBS
[17] = read-out: Cell EC50 (16 hr, 10% FBS), p53 reporter assay, 16 hr, 10% FBS
[18] = 0% FBS 4Hr, read-out: LDH: Cytotoxicity assay: EC50
[19] = 0% FBS 4Hr, read-out: TETCHO: Counterscreen EC50
[20] = 10% FBS 16Hr, read-out: TETCHO: Counterscreen EC50

SMILES	EC50 [1, 15] [µM]	EC50 [2, 18] [µM]	LDH: Cytotoxicity assay: % Effect ([3]; 0% FBS 4Hr) [%]	TETCHO: Counterscreen % Effect ([4]; 0% FBS 4Hr) [%]	EC50 [4, 19] [µM]	CD % Helicity [5] [%]	Nanoclick permeability assay % Effect [8] [%]	solubility kinetic ([6]; pH 7, PBS) [µM]	EPSA [12] [A^2]	logD [9]	EC50 ([2]; LDH: Cytotoxicity assay: EC50) [µM]	LDH: Cytotoxicity assay: % Effect [3] [%]	TETCHO: Counterscreen % Effect ([4]; 0% FBS 16Hr) [%]	also measured
CC(=O)N[C@@H](CCCCN=[N+]=[N-])C(=O)NCCC(=O)N[C@@H](CC(C)C)C(=O)N[C@H](C(=O)N[C@@H](Cc1ccccc1)C(=O)N[C@]1(C)CCCCCCn2cc(nn2)CCC[C@@](C)(C(=O)N[C@@H](CO)C(=O)N[C@@H](C)C(=O)N[C@@H](C)C(N)=O)NC(=O)[C@H](CC2CCC2)NC(=O)[C@H](CCC(N)=O)NC(=O)[C@H](C)NC(=O)[C@H](Cc2c[nH]c3ccccc23)NC(=O)[C@H](Cc2ccc(O)cc2)NC(=O)[C@H](CCC(=O)O)NC1=O)[C@@H](C)O [MP-707]	1.6	> 50.7	-2.492	-1.105	> 50.4	33.95								p53 reporter assay: % Effect ([1]; 0% FBS 4Hr): 101.9%; p53 reporter assay: % Effect ([1]; 10% FBS 16Hr): 63.44%; EC50 ([1]; 10% FBS 16Hr, read-out: p53 reporter assay: EC50): 13.6 µM; EC50 [1, 16]: 1.6 µM; EC50 [1, 17]: 13.6 µM; EC50 ([2]; 10% FBS 16Hr, read-out: LDH: Cytotoxicity assay: EC50): > 50.7 µM; LDH: Cytotoxicity assay: % Effect ([3]; 10% FBS 16Hr): 13.49%; TETCHO: Counterscreen % Effect ([4]; 10% FBS 16Hr): -2.89%; EC50 [4, 20]: > 50.4 µM
CC(=O)N[C@@H](CC(C)C)C(=O)N[C@H](C(=O)N[C@@H](Cc1ccccc1)C(=O)N[C@]1(C)CCCCCCC=CCCC[C@@](C)(C(=O)N[C@@H](C)C(=O)N[C@@H](C)C(=O)N[C@@H](C)C(=O)N[C@@H](C)C(=O)N[C@@H](C)C(=O)N[C@H](C)C(N)=O)NC(=O)[C@H](CC(C)C)NC(=O)[C@H](CCC(N)=O)NC(=O)[C@H](C)NC(=O)[C@H](Cc2c[nH]c3ccccc23)NC(=O)[C@H](Cc2ccc(O)cc2)NC(=O)[C@H](CCC(=O)O)NC1=O)[C@@H](C)O [ALRN-6924, Ac-LTF(R8)EYWAQL(S5)AAAAA(dA)-NH2, reference compound] (Ac-LTF[R8]EYWAQL[S5]AAAAA[dA]-NH2; staple 4-11)				4.454	> 50.4	51.25	33.65							p53 reporter assay % Effect ([1]; 0% FBS 4Hr): 95.6%; EC50 ([1]; 0% FBS 4Hr, read-out: p53 reporter assay EC50): 0.141 µM; p53 reporter assay % Effect ([1]; 10% FBS 16Hr): 77.82%; EC50 ([1]; 10% FBS 16Hr, read-out: p53 reporter assay EC50): 0.323 µM; EC50 [1, 16]: 0.14 µM; EC50 [1, 17]: 0.32 µM; EC50 ([2]; 0% FBS 4Hr, read-out: LDH: Cytotoxicity assay EC50): > 50.7 µM; EC50 ([2]; 10% FBS 16Hr, read-out: LDH: Cytotoxicity assay EC50): > 50.7 µM; LDH: Cytotoxicity assay % Effect ([3]; 0% FBS 4Hr): 0.8526%; LDH: Cytotoxicity assay % Effect ([3]; 10% FBS 16Hr): 8.856%; TETCHO: Counterscreen % Effect ([4]; 10% FBS 16Hr): -11.62%; EC50 [4, 20]: > 50.4 µM; Solubility [6]: P.B.; Solubility ([6]; pH 7, PBS): Poorly Behaved; Aqueous solution helicity ([5]; circular dichroism): 51.25%; cell entry EC50 [7]: > 10 µM; Partition Coeff LogD [9]: Poorly Behaved
CC(=O)N[C@@H](CCCCN=[N+]=[N-])C(=O)NCCC(=O)N[C@@H](CC(C)C)C(=O)N[C@H](C(=O)N[C@@H](Cc1ccccc1)C(=O)N[C@]1(C)CCCCCCC=CCCC[C@@](C)(C(=O)N[C@@H](CO)C(=O)N[C@@H](C)C(=O)N[C@@H](C)C(N)=O)NC(=O)[C@H](CC2CCC2)NC(=O)[C@H](CCC(N)=O)NC(=O)[C@H](Cc2c[nH]cn2)NC(=O)[C@H](Cc2c[nH]c3ccccc23)NC(=O)[C@H](Cc2ccc(O)cc2)NC(=O)[C@H](CCC(=O)O)NC1=O)[C@@H](C)O [MP-496, AZIDE-ATSP-7041 (A8H)]	1.61	> 50.6	33.4	34.53	2.83	32.75		20 (≈ 40.7 µg/mL)	214	2.63				EC50 ([1]; 0% FBS 16Hr, read-out: p53 reporter assay: EC50): 1.67 µM; TETCHO Counterscreen % Effect ([4]; 4 hours, 0% serum, efficacy at 50 μM relative to tetracycline control): 34.53%; EC50 ([4]; 4 hours, 0% serum, read-out: TETCHO Counterscreen EC50): 2.8 µM; off-target effects (LDH release and/or counterscreen activity) ([4]; Supplementary Table 1, 0% serum, 4 hours): none; EC50 [10]: > 49.8 µM; EC50 [11]: 1.54 µM
CC(=O)N[C@@H](CC(C)C)C(=O)N[C@H](C(=O)N[C@@H](Cc1ccccc1)C(=O)NC(C)(C)C(=O)N[C@@H](CCC(=O)O)C(=O)N[C@@H](Cc1ccc(O)cc1)C(=O)N[C@@H](Cc1c[nH]c2ccccc12)C(=O)N[C@@H](C)C(=O)N[C@@H](CCC(N)=O)C(=O)N[C@@H](CC(C)C)C(=O)NC(C)(C)C(=O)N[C@@H](CO)C(N)=O)[C@@H](C)O [MP-790] (Ac-LTF[Aib]EYWAQL[Aib]S-NH2)	> 50.6			9.13	> 50.6	19	-7.015	88 (≈ 129 µg/mL)	176	2.11	> 50.6	-1.73	119.2	
CC(=O)N[C@H](C(=O)N[C@@H](CO)C(=O)NC(C)(Cc1ccccc1)C(=O)N[C@]1(C)CCCCCCC=CCCC[C@@](C)(C(N)=O)NC(=O)[C@H](CC(C)C)NC(=O)[C@H](CC(C)C)NC(=O)[C@H](C)NC(=O)[C@H](Cc2c[nH]c3ccccc23)NC(=O)[C@H](Cc2ccc(O)cc2)NC(=O)[C@H](CCC(=O)O)NC1=O)[C@@H](C)O (stereo partly drawn) [MP-159]	37.4			165.5	30.1	40.4		85.5 (≈ 126 µg/mL)	210	2.75	21.6	47.15	55.93	Kd [13]: 0.52 µM
CC(=O)N[C@@H](CCCCN=[N+]=[N-])C(=O)NCCC(=O)N[C@@H](CC(C)C)C(=O)N[C@H](C(=O)N[C@@H](Cc1ccccc1)C(=O)N[C@]1(C)CCCCCCC=CCCC[C@@](C)(C(=O)N[C@@H](CO)C(=O)N[C@@H](C)C(=O)N[C@@H](C)C(N)=O)NC(=O)[C@H](CC2CCC2)NC(=O)[C@H](CCC(N)=O)NC(=O)[C@H](C)NC(=O)[C@H](Cc2c[nH]c3ccccc23)NC(=O)[C@H](Cc2ccc(O)cc2)NC(=O)[C@@H]2CCCN2C1=O)[C@@H](C)O [MP-8834]		> 50.6	1.728	11.7		21.9	129.4		187	3.03				cell entry EC50 [7]: 0.312 µM
CC(=O)N[C@H](C(=O)N[C@@H](CO)C(=O)NC(C)(Cc1ccccc1)C(=O)N[C@@H]1CCCCCCC=CCCC[C@@H](C(N)=O)NC(=O)C(C)(CC(C)C)NC(=O)[C@H](CC(C)C)NC(=O)[C@H](C)NC(=O)[C@H](Cc2c[nH]c3ccccc23)NC(=O)[C@H](Cc2ccc(O)cc2)NC(=O)[C@H](CCC(=O)O)NC1=O)[C@@H](C)O (stereo partly drawn) [MP-792]	12.2			20.04	48.9	25.3					> 50	10.77	-1.02	Kd [13]: 0.199 µM
CC(=O)N[C@@H](CC(C)C)C(=O)N[C@H](C(=O)N[C@@H](Cc1ccccc1)C(=O)N[C@]1(C)CCCCCCC=CCCC[C@@](C)(C(=O)N[C@@H](CO)C(=O)N[C@@H](C)C(=O)N[C@@H](C)C(=O)NCCCCCC(N)=O)NC(=O)[C@H](CC2CCC2)NC(=O)[C@H](CCC(N)=O)NC(=O)[C@H](C)NC(=O)[C@H](Cc2c[nH]c3ccccc23)NC(=O)[C@H](Cc2ccc(O)cc2)NC(=O)[C@H](CCC(=O)O)NC1=O)[C@@H](C)O [MP-670]														EC50 ([2]; LDH: Cytotoxicity assay EC50): > 50 µM; Solubility ([6]; pH 7, PBS): Poorly Behaved; EPSA [14]: 193 A^2; Partition Coeff LogD [9]: Poorly Behaved
